# Reference: patent US8450333B2, “Molecules for regulating cell death” (The Regents of The University of California, priority 2003, dated 2013)
# Key:
# [1] = target: T1, recombinant Dnm1 (Saccharomyces cerevisiae, UniProt P54861); test: Dnm1 GTPase activity, radioactive TLC-based assay; format: biochemical, yeast
# T1 construct: made in house; host or cells: insect cells (baculovirus expression system)
# T1 sequence (P54861 1-757): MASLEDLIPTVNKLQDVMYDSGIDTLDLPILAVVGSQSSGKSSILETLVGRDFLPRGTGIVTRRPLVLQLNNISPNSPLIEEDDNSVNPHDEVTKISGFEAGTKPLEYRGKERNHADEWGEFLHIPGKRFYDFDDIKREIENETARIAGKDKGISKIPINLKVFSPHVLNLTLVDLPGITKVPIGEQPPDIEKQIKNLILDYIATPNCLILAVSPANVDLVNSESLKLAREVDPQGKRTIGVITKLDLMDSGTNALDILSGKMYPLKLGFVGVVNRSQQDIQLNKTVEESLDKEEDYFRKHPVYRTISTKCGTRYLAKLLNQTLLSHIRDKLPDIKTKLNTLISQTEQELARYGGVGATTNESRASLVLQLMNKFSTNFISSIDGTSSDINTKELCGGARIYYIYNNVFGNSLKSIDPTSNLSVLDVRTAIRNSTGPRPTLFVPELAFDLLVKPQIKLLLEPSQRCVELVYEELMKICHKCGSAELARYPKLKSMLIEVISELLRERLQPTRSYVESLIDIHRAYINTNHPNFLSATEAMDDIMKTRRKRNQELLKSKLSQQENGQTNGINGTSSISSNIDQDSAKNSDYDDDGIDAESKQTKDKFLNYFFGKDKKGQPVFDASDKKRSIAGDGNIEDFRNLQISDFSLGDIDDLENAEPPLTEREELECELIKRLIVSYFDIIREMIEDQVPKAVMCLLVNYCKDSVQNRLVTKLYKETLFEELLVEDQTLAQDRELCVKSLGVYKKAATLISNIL
# Description: In order to discern a detailed mechanism for mitochondrial fission, we have begun to purify and characterize activities associated with known fission components, with the ultimate goal of reconstituting this event in vitro. Towards this goal, we have successfully expressed and purified active recombinant Dnm1 (the yeast mitochondrial fission DRP) from insect cells, using a baculovirus expression system. Using an established radioactive TLC-based assay for GTPase activity, we characterized the kinetic properties of recombinant Dnm1 under low salt conditions (FIG. 10A). […] The Km for GTP for Dnm1 is near 200 μM, greater than that observed for assembled dynamin (˜10 μM). The significance of this difference as it relates to the function of these DRPs will be interesting to determine.
# Determining the mechanism of mfisi-1 inhibition is critical for assessing how DRPs function in mitochondrial fission. We will perform standard steady-state kinetic assays to determine the mechanism of inhibition by mfisi-1 using established GTPase assays in the presence of variable concentrations of substrate (GTP) and mfisi-1. […] Nucleotides are resolved using thin layer chromatography, and quantification of GTP and GDP product is performed using a Phosphorimager. All rates are calculated using time points where product formation is linear over time.
# [2] = system: mammalian COS cells; test: Mitochondrial fragmentation induced by staurosporine (STS) in COS cells; format: cell-based; settings: COS cells stimulated with STS; mfisi-1 at 50 μM; n=100
# Description: As indicated above, we observed that mfisi-1 causes changes in mitochondrial morphology in mammalian cells that are consistent with a block in mitochondrial fission. Thus, we examined the effects of mfisi-1 on mitochondrial fragmentation caused by the intrinsic apoptotic stimulus staurosporine (STS) in mammalian COS cells. […] These observations indicate that mfisi-1 retards apoptosis-stimulated Drp1-dependent mitochondrial fission.
# [3] = system: mammalian COS cells; test: Mitochondrial morphology in mammalian COS cells; format: cell-based
# Description: Drp1, the mammalian mitochondrial fission DRP, has a high degree of similarity and identity to its yeast ortholog, Dnm1. This encouraged us to exploit the chemical genetic approach and examine the effects of mfisi-1 on mitochondrial morphology in mammalian cells. In mammalian cells, it has been established that when fission is retarded by expression of dominant-negative Drp1, mitochondria become progressively more interconnected, form net-like structures, and collapse into degenerate perinuclear structures in cells. Remarkably, the addition of mfisi-1 to mammalian COS cells in culture caused a rapid and reversible change in mitochondrial morphology equivalent to that observed upon expression of dominant negative Drp1 in double-binded experiments (FIG. 12, n=100: untreated; 0% collapsed nets, 14% loose nets, 70% reticular, 15% fragmented; mfisi-1 treated; n=100, 19% collapsed nets, 45% loose nets, 36% reticular, 0% fragmented). The EC50 of mfisi-1 effects on mitochondrial morphology in mammalian cells is similar to that observed for the effect of mfisi-1 on mitochondrial morphology in yeast (EC50=10 µM).
smiles,measurement,setting,value
"COc1cc(-n2c(S)nc3ccccc3c2=O)c(Cl)cc1Cl [mfisi-1, 3-(2,4-Dichloro-5-methoxy-phenyl)-2-mercapto-3H-quinazolin-4-one]",IC50,[1],~10 µM
same,mode of inhibition versus GTP,"[1]; mfisi-1 at its IC50, GTP 10 μM-2 mM",NOT a pure competitive inhibitor
same,% collapsed nets,[2],0%
same,% fragmented,[2],46%
same,% loose nets,[2],8%
same,% reticular,[2],46%
same,% collapsed nets,"[3]; COS cells, n=100",19%
same,% fragmented,"[3]; COS cells, n=100",0%
same,% loose nets,"[3]; COS cells, n=100",45%
same,% reticular,"[3]; COS cells, n=100",36%
same,EC50,"[3]; COS, mammalian cells, similar to yeast, read-out: EC50, effects on mitochondrial morphology",10 µM
